Earlier results in article PMC5889410, “Design and Biological Evaluation of Antifouling Dihydrostilbene Oxime Hybrids” (Marine Biotechnology (New York, N.y.), 2018).

Key:
[1] = test system: blue mussel phenoloxidase; parameters: method as in Bayer et al. [2011]; details: ref Bayer et al. [2011]; cited from earlier work
[2] = test system: Balanus improvisus cyprid larvae; details: B. improvisus larvae settlement; ref Ortlepp et al. [2007]; cited from earlier work

Compound: O=C(NCCc1ccc(O)cc1)C(Cc1ccc(O)cc1)=NO [Compound 4, debromohemibastadin-1]
- inhibition of phenoloxidase, in words [1]: inhibit
- minimum significant dose to inhibit settlement [2]: 100 µM
